Laboratory results reported in US4160097A, “1-(2-Phenylureylene)imidazoles” (Westwind Pharmaceuticals, Inc., priority 1977, dated 1979).
Converted amounts (≈) assume the structure as drawn.

Tests used:
[1] = system: carrageenan rat paw edema; test: Rat Paw Edema Assay, Oral Dosing; format: in vivo; settings: 4 h, four hours after drug, read-out: % Difference from Control; for change in vivo at 100 mg/kg: 100 mg/kg oral; for change in vivo at 400 mg/kg: 400 mg/kg oral
Procedure: The anti-inflammatory activity of representative compounds of this invention was determined by the rat paw edema assay both by local administration (Table XI below) and by oral dosing (Table XII below). For the oral dosing, the procedure of C. A. Winter, E. A. Risley and G. W. Nuss, Proc. Soc. Exp. Biol. Med. III, 544 (1962) was employed with measurement taken four hours after the drug was administered. The local administration tests were carried out similarly except the irritant (carrageenan) and the test compound were injected simultaneously at time zero.
Tables XI and XII report the anti-inflammatory activity of the compounds tested as % difference in the edema or swelling as compared with the control. These Tables also give the response in many instances of more than one dose level of the same drug.

[2] = system: humeral or antibody response; test: hemolysin test in mice; format: in vivo; settings: Mus musculus, sc, dose reducing antibody activity by 50% vs control, read-out: HL(ED50)
[3] = system: cell-mediated immune response to the antigen, Mycobacterium tuberculosis H37Ra; test: delayed hypersensitivity test; format: in vivo, mouse; settings: mice, dose reducing edema of cell-mediated immune response by 60% vs control; for ED60: Mus musculus, sc, read-out: D.H.S. (ED60)
Procedure: The immunosuppressant activities of the compounds of this invention were determined via the hemolysin test in mice and by the delayed hypersensitivity test. The hemolysin test used is that described in Methods in Immunology, edited by D. H. Campbell et al, W. A. Benjamin, New York 1963 pages 172-175, and measures humeral or antibody response. The delayed hypersensitivity test measures the effect of a test compound on the ability of a subject mouse to mount a cell-mediated immune response to the antigen, Mycobacterium tuberculosis H37Ra. The mouse is sensitized to the antigen by subcutaneous administration in the base of the tail. The development of the delayed hypersensitivity response may be measured at any time beginning six days after sensitization but is usually done on the ninth day as follows: The right hind paw is injected with purified protein derivative (tuberculin) while the left hind paw (control) receives physiological saline. Both paw volumes are measured after twenty-four hours and significant increase in the volume of the right hand paw is taken as a measure of an effective delayed hypersensitivity response. All compounds were administered by the subcutaneous route.
The D.H.S. (ED60) mg./kg. s.c. value appearing in column 3 is an expression of the effectiveness of the drug in reducing the edema that accompanies the cell-mediated immune response. It is a measure of the number of milligrams per kilogram of body weight of the drug administered subcutaneously which is required to reduce the edema of the cell-mediated immune response by 60% when compared to the control.

[4] = system: Trichophyton mentagrophytes; test: Antifungal activity, agar dilution method; format: cell-based, Trichophyton mentagrophytes (ATCC No. 8757 and 9129); settings: T. mentagrophytes, read-out: Parts Per Million Inhibitions of T. mentagrophytes
Procedure: various compounds of this invention display antifungal and anti-yeast activity.
In Table IX below are listed the antifungal activity of a number of compounds encompassed in the present invention. These were determined by the agar dilution method as described in Chapters 2 and 3 of Methods in Microbiology, Vol. 7B, edited by J. R. Norris and D. W. Ribbons, Academic Press, New York, 1972.

SMILES	change in vivo at 100 mg/kg [1] [%]	ED50 [2] [mg/kg]	ED60 [3] [mg/kg]	further results
CC(=O)Oc1ccccc1C(=O)O [Aspirin, reference compound]	-57			
CC(=O)Nc1ccccc1-n1ccnc1 [Compound 2]	-26			change in vivo at 400 mg/kg [1]: 43%
CCC(=O)Nc1ccccc1-n1ccnc1 [Compound 3]		50	50	D.H.S. (ED60) ([3]; s.c.): 50.0 mg/kg
CC(C)CC(=O)Nc1ccccc1-n1ccnc1 [Compound 14]	-52			
CCCCC(CC)C(=O)Nc1ccccc1-n1ccnc1 (stereo not drawn) [Compound 15]	-24			change in vivo at 400 mg/kg [1]: -5%
O=C(Cc1ccccc1)Nc1ccccc1-n1ccnc1 [Compound 18]	-28			
O=C(Nc1ccccc1-n1ccnc1)C1CC1 [Compound 23]	-46			
O=C(Nc1ccccc1-n1ccnc1)C1CCC1 [Compound 24]	-17			change in vivo at 400 mg/kg [1]: -25%
O=C(Nc1ccccc1-n1ccnc1)C1CCCCC1 [Compound 25]	-30			
O=C(Nc1ccccc1-n1ccnc1)C(Cl)Cl [Compound 29]	-24			change in vivo at 400 mg/kg [1]: -25%
O=C(Nc1ccccc1-n1ccnc1)C(F)(F)F [Compound 30]	9			change in vivo at 400 mg/kg [1]: -33%
Cc1cccc(C(=O)Nc2ccccc2-n2ccnc2)c1 [Compound 36]	-7			change in vivo at 400 mg/kg [1]: -68%
Cc1ccc(C(=O)Nc2ccccc2-n2ccnc2)cc1 [Compound 37]	-35			
O=C(Nc1ccccc1-n1ccnc1)c1cccc(C(F)(F)F)c1 [Compound 38]	-41			
O=C(Nc1ccccc1-n1ccnc1)c1cccc([N+](=O)[O-])c1 [Compound 42]	-9			change in vivo at 400 mg/kg [1]: -25%
O=C(Nc1ccccc1-n1ccnc1)c1ccc(F)cc1 [Compound 45]	-33			
O=C(Nc1ccccc1-n1ccnc1)c1cccc(Cl)c1 [Compound 50]	-20			change in vivo at 400 mg/kg [1]: -33%
O=C(Nc1ccccc1-n1ccnc1)c1ccc(Cl)cc1Cl [Compound 52]	-26			
COc1ccc(C(=O)Nc2ccccc2-n2ccnc2)cc1 [Compound 55]	-26			
COc1cc(OC)cc(C(=O)Nc2ccccc2-n2ccnc2)c1 [Compound 57]	-35			

SMILES	change in vivo at 100 mg/kg [1] [%]	ED50 [2] [mg/kg]	ED60 [3] [mg/kg]	further results
CCCNC(=O)Nc1ccccc1-n1ccnc1 [Compound 66]		46	> 50	
O=C(Nc1ccccc1-n1ccnc1)NC1CCCCC1 [Compound 68]	-26			
Cc1ccc(NC(=O)Nc2ccccc2-n2ccnc2)cc1 [Compound 71]	-22			
O=C(Nc1cccc(F)c1)Nc1ccccc1-n1ccnc1 [Compound 73]	-22			
O=C(Nc1ccc(Cl)cc1)Nc1ccccc1-n1ccnc1 [Compound 75]	-30			
CCc1nc2ccccc2n2ccnc12 [Compound 111]	-43			
CCCCCCc1nc2ccccc2n2ccnc12 [Compound 115]	70			change in vivo at 400 mg/kg [1]: -25%
CCCCCCCCc1nc2ccccc2n2ccnc12 [Compound 117]	-7	> 50	46	change in vivo at 400 mg/kg [1]: -18%
CC(C)Cc1nc2ccccc2n2ccnc12 [Compound 121]	-61			
FC(F)(F)c1cccc(-c2nc3ccccc3n3ccnc23)c1 [Compound 136]	-9	2.7	> 50	change in vivo at 400 mg/kg [1]: -25%; MIC [4]: 100 µg/mL (≈ 319 µM)
COc1cc(OC)cc(-c2nc3ccccc3n3ccnc23)c1 [Compound 139]	-22	3	> 50	change in vivo at 400 mg/kg [1]: -25%; MIC [4]: 100 µg/mL (≈ 328 µM)
Clc1cccc(-c2nc3ccccc3n3ccnc23)c1 [Compound 142]		0.2	4.2	MIC [4]: 100 µg/mL (≈ 357 µM)
Clc1ccc(-c2nc3ccccc3n3ccnc23)cc1Cl [Compound 143]		0.36	1.3	
Clc1ccc(-c2nc3ccccc3n3ccnc23)c(Cl)c1 [Compound 144]	-26			
Brc1ccc(-c2nc3ccccc3n3ccnc23)cc1 [Compound 146]		0.11	3.1	
Fc1ccc(-c2nc3ccccc3n3ccnc23)cc1 [Compound 147]	-39	0.027	1.7	
N#Cc1ccc(-c2nc3ccccc3n3ccnc23)cc1 [Compound 149]		0.16	8.8	
O=[N+]([O-])c1cccc(-c2nc3ccccc3n3ccnc23)c1 [Compound 150]	-30	22	> 50	
Brc1cccc(-c2nc3ccccc3n3ccnc23)c1 [Compound 157]		0.39	12	
Fc1cccc(-c2nc3ccccc3n3ccnc23)c1 [Compound 158]		1	7.6	

SMILES	change in vivo at 100 mg/kg [1] [%]	ED50 [2] [mg/kg]	ED60 [3] [mg/kg]	further results
Oc1ccc(-c2nc3ccccc3n3ccnc23)cc1 [Compound 162]		13		
c1ccc(Nc2nc3ccccc3n3ccnc23)cc1 [Compound 170]		6.6	> 50	
Cc1ccc(Nc2nc3ccccc3n3ccnc23)cc1 [Compound 171]		0.96	59	
Clc1ccc(Nc2nc3ccccc3n3ccnc23)cc1 [Compound 174]		0.61	8	
Clc1ccc(Nc2nc3ccccc3n3ccnc23)cc1Cl [Compound 175]		0.09	5.9	
Brc1ccccc1Nc1nc2ccccc2n2ccnc12 [Compound 177]		13	> 50	
Brc1cccc(Nc2nc3ccccc3n3ccnc23)c1 [Compound 178]		11	46	
Fc1ccccc1Nc1nc2ccccc2n2ccnc12 [Compound 180]		5.6		
Fc1cccc(Nc2nc3ccccc3n3ccnc23)c1 [Compound 181]		16		
Brc1ccc(Nc2nc3ccccc3n3ccnc23)cc1 [Compound 183]		0.39	15	
Ic1ccc(-c2nc3ccccc3n3ccnc23)cc1 [Compound 196]		0.42	45	
Cc1ccccc1Nc1nc2ccccc2n2ccnc12 [Compound 197]		1.6	37	
CC(C)c1ccc(Nc2nc3ccccc3n3ccnc23)cc1 [Compound 218]		1.5	25	
c1ccc(Oc2ccc(-c3nc4ccccc4n4ccnc34)cc2)cc1 [Compound 219]		2.5	> 32	
COc1ccc(Oc2ccc(-c3nc4ccccc4n4ccnc34)cc2)cc1 [Compound 220]		2.3	11	
CCCCSc1ccc(-c2nc3ccccc3n3ccnc23)cc1 [Compound 222]		1	> 32	
COc1ccc2c(c1)c(CC(=O)O)c(C)n2C(=O)c1ccc(Cl)cc1 [Indomethacin, reference compound]	-65			
CCCCC1C(=O)N(c2ccccc2)N(c2ccccc2)C1=O [phenylbutazone, reference compound]	-76			
